In patent publication US20130231296A1, “NEW DRUG COMBINATIONS FOR THE TREATMENT OF MALARIA” (Bioagency AG, priority 2010, published 2013) one finds IC50 and IC90 data, which are given here for two compounds.

Molecules are shown by their SMILES. Like-named read-outs stand apart in the source and are kept apart here.

For test [1], the system named is P. falciparum 3D7. Briefly: in vitro inhibition of parasite growth by [3H] hypoxanthine incorporation, drugs alone. It counts as cell-based. To be noted: Plasmodium falciparum; for IC50: 3D7, P. falciparum 3D7 (chloroquine sensitive). On the procedure: (§1) 1. Initial determination of the in vitro efficacy profile (IC50/IC90) of FOS and PIP against a drug sensitive and a drug resistant strain of Plasmodium falciparum. P. falciparum 3D7 is chloroquine sensitive, P. falciparum K1 is insensitive to chloroquine
(§2) in vitro inhibition of parasite growth was assessed by the incorporation of [3H] hypoxanthine, including chloroquine (CQ) and artesunate (ASN) as positive control drugs.
(§3) The first set of in vitro experiments established the IC50 values of the drugs alone, followed by Fixed Ratio Combination assays of FOS+PIP with FOS+CND as a control combination. Chloroquine and artesunate were included in all assays to ensure the validity of the test.
(§4) The first sets of experiments were carried out to establish the IC50 and IC90 values of the drugs on their own. The drugs were evaluated in 3 separate experiments (see Tables 1 & 2)

The subject of test [2] is P. falciparum K1. The description is as above. It is filed as cell-based. To be noted: Plasmodium falciparum; for IC50: K1, P. falciparum K1 (insensitive to chloroquine). On the procedure:
as §1, §2, §3, §4

Setting [3] is: 3D7, P. falciparum 3D7, Experiment 1.
Where [4] appears, read: 3D7, P. falciparum 3D7, Experiment 2.
Setting [5] is: 3D7, P. falciparum 3D7, Experiment 3.

The term IC50 denotes the concentration needed to halve the response being measured. As usually defined, the IC90 is the point of the concentration-response curve where the effect stands at 90%. For the compound `C[C@H]1[C@H](OC(=O)CCC(=O)O)O[C@@H]2O[C@@]3(C)CC[C@H]4[C@H](C)CC[C@@H]1[C@@]24OO3` [ASN, Artesunate], the IC50 is 1.9 ng/mL in test [1] (Experiment 1); 2 ng/mL in test [1] (Experiment 2); 0.8 ng/mL in test [1] (Experiment 3); 5 ng/mL in test [2] (Experiment 1); 2 ng/mL in test [2] (Experiment 2); 2 ng/mL in test [2] (Experiment 3). Further, the IC90 is 7 ng/mL in test [1] (setting [3]); 2 ng/mL in test [1] (setting [4]); 2 ng/mL in test [1] (setting [5]); 6 ng/mL in test [2] (K1, P. falciparum K1, Experiment 1); 3 ng/mL in test [2] (K1, P. falciparum K1, Experiment 2); 4 ng/mL in test [2] (K1, P. falciparum K1, Experiment 3).
Consider `Clc1ccc2c(N3CCN(CCCN4CCN(c5ccnc6cc(Cl)ccc56)CC4)CC3)ccnc2c1` [PIP, 7-chloro-4-[4-[3-[4-(7-chloroquinolin-4-yl)piperazin-1-yl]propyl]piperazin-1-yl]quinoline], for which the IC50 in test [1] (Experiment 1) was determined as 10 ng/mL; in test [1] (Experiment 2), 6 ng/mL; in test [1] (Experiment 3), 10 ng/mL; in test [2] (Experiment 1, read-out: IC50), 20 ng/mL; in test [2] (Experiment 2, read-out: IC50), 20 ng/mL; in test [2] (Experiment 3, read-out: IC50), 10 ng/mL. Moreover, the concentration for an effect of 90% (IC90) in test [1] (setting [3]) turned out to be 18 ng/mL; in test [1] (setting [4]), 20 ng/mL; in test [1] (setting [5]), 10 ng/mL; in test [2] (K1, P. falciparum K1, Experiment 1, read-out: IC90) it was 60 ng/mL; in test [2] (K1, P. falciparum K1, Experiment 2, read-out: IC90), 50 ng/mL; in test [2] (K1, P. falciparum K1, Experiment 3, read-out: IC90), 20 ng/mL.
